Key:
OG2 MEFs = test: iPSC derivation from 4F (OSKM)-transduced OG2 MEFs in iSF1 media (Oct4-GFP colonies); assay type: cell-based, mouse
Method: Recently, a serum-free media (iSF1) was developed to facilitate the generation of mouse iPSCs (39). The effect of compound OAC1 in the 4F-induced reprogramming was tested in iSF1 media. OG2 MEFs, derived from transgenic mice expressing the Oct4 promoter-driven GFP reporter (Oct4-GFP) (40), were transduced with retroviruses expressing the 4F reprogramming factors, Oct4, Sox2, Klf4, and c-Myc. The 4F-transduced cells were transferred to iSF1 media two days after viral transduction and this day was designated as day 0 (FIG. 3A). Treatment of compound OAC1 started on day 1 and lasted for 7 days. […] At day 5, a more than 3-fold increase in the number of GFP-positive colonies was detected in OAC1-treated, 4F-transduced cells (4F+OAC1), compared to vehicle-treated, 4F-transduced cells (FIG. 3B, C). […] The number of GFP-positive colonies in 4F-treated cells at day 8 (average of 200) was less than the number of GFP-positive colonies in 4F+OAC1-treated cells at day 5 (average of 350) (FIG. 3B, C).
iPSC Derivation in iSF1 Media: OG2 MEFs were seeded onto 6-well plates at the density of 3×10^4 cells per well in DMEM medium with 10% FBS, 0.1 mM NEAA, and 0.1 mM L-glutamine, 24 hr before transduction. Freshly prepared viruses of the 4F, Oct4, Sox2, c-Myc, and Klf4, were added to the cells. Two days after viral infection, the transduced OG2 MEFs were split into new 6-well plates with irradiated MEF feeders and cultured in iSF1 reprogramming media containing high glucose DMEM, 10% knockout serum, 0.5% N2, 5 ng/ml b-FGF, 2 mM L-glutamine, 0.1 mM 2-mercaptoethanol, 0.1 mM NEAA and 1000 U/ml of LIF. This day was defined as day 0. On day 1, 1 μM of each compound (OAC1, OAC2, and OAC3) was added to the 4F-transduced OG2 MEFs. Treatment was continued for 1 week. When iPSC colonies emerged, these colonies were picked for expansion on the irradiated MEF feeders in mouse ESC medium.

Tet1 = test: RT-PCR of Tet1 mRNA in treated MEFs; assay type: cell-based, mouse; conditions: versus vehicle
Method: The up-regulation of Tet1 is intriguing, as this is a gene that converts 5-methylcytosine to 5-hydroxymethylcytosine and may be involved in active DNA demethylation.
(§1) RT-PCR analysis: Total RNA was purified with Trizol reagent (Invitrogen). Reverse transcription was performed with 1 μg of RNA using Omniscript® Reverse Transcription Kit (Qiagen). Quantitative PCR was performed using iTaq SYBR Green Supermix with Rox (Bio-rad) in Applied Biosystem Step one plus real-time PCR system. […]

luciferase = luciferase (Photinus pyralis, UniProt P08659); conditions: read-out: EC50 of luciferase inhibition; at 40° C., loss of enzymatic activity as measurement; cited from earlier work
endogenous Nanog = test: RT-PCR of endogenous Nanog mRNA in treated MEFs; assay type: cell-based, mouse; conditions: versus vehicle
Method: MEFs were treated with vehicle control or OAC 1 to test whether OAC 1 activates endogenous Oct4 and Nanog gene transcription. […] Oct4, Sox2, and Nanog are central to the transcriptional regulatory hierarchy for ESC pluripotency, forming the core transcriptional regulatory circuitry in ESCs (37). […] OAC1 activated Sox2 mRNA expression, along with Oct4 and Nanog (FIG. 61).
as §1

luciferase, sequence (P08659 whole entry): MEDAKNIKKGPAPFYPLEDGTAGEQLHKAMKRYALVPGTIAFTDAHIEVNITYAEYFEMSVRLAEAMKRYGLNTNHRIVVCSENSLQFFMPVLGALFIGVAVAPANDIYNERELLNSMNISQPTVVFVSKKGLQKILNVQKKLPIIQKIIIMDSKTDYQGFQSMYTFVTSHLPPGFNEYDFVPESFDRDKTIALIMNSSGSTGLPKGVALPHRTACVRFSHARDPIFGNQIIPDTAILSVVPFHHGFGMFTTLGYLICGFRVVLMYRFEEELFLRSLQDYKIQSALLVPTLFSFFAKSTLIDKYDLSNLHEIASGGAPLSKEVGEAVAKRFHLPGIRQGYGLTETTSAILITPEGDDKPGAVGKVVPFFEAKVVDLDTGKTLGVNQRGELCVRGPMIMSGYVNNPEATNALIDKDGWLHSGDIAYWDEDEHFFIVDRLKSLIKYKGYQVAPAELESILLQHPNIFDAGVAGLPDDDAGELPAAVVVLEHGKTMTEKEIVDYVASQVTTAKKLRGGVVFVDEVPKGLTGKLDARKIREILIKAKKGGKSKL

O=C(Nc1cc2cc[nH]c2cn1)c1ccccc1 [OAC1, N-(1H-6-azaindol-5-yl)benzamide]
Colony numbers (OG2 MEFs; MEFs in iSF1 media, OSKM, seeding 3 × 10^4, day 8, 1 μM compound): 800 | Reprogramming efficiency (OG2 MEFs; MEFs in iSF1 media, OSKM, seeding 3 × 10^4, day 8, colony numbers divided by seeding cell numbers): 2.75% | day at which GFP+ colonies started to appear (OG2 MEFs; iSF1 media, 4F+compound, days after transfer to iSF1 media): 3 days | increase in the number of GFP-positive colonies compared to vehicle-treated 4F-transduced cells (OG2 MEFs; iSF1 media, day 5): more than 3 fold | number of GFP-positive colonies (average) (OG2 MEFs; iSF1 media, day 5): 350 | reprogramming efficiency of 4F+compound relative to 4F alone in the initial Yamanaka study (OG2 MEFs; not a direct comparison): more than 20 fold | Tet1 mRNA expression (Tet1): up-regulated | EC50 (luciferase): 6.37 µM | endogenous Nanog mRNA expression (endogenous Nanog): activated
